Measurements taken from PMC12735921, “Evaluation of Antiproliferative Activity and Molecular Modeling Studies of Some Novel Benzimidazolone-Bridged Hybrid Compounds” (Pharmaceuticals, 2025).
“And” between values parts separate entries of the source, which are not always exact repeats. Equal entries are not always repeated.

Columns and labels:
Type in all cases: cell-based, human
A549 cells = test: MTT cell viability assay, A549; settings: for IC50: MTT, 48 h, mean ± SD, n = 3; for A549 Selectivity Index (SI): SI = IC50 (HEK 293)/IC50 (A549)
Protocol: (§1) Cell viability assay was performed on the human lung cancer (A549) (ATCC CCL-185), human breast cancer (MCF-7) (ATCC-HTB-22), cervical cancer (HeLa) (ATCC-CCL-2), and human embryonic kidney 293 (HEK293) (ATCC-CRL-1573) cell lines, which were purchased from Deutsche Sammlung von Mikroorganismen und Zellkulturen (DSMZ, Braunschweig, Germany). The cells were maintained in Dulbecco’s modified Eagle’s medium (DMEM), supplemented with 10% fetal bovine serum (FBS), 2 mM L-glutamine, 100 U/mL penicillin, and 100 mg/L streptomycin (Biochrom AG, Berlin, Germany) at 37 °C in a humidified atmosphere of 5% CO2.
(§2) The cytotoxic effect was determined by the MTT (3-(4,5-dimethyl-2-thiazolyl)-2,5-diphenyl-2H-tetrazolium bromide) cell viability assay. Cells were seeded at an initial concentration of 1 × 10^5 cells/mL in 96-well microplates. Cells were then treated with different concentrations (0.5, 5, 10, 25, 50, 100 and 200 µM) of the novel synthesized compounds for 48 h. After the incubation period, the formed formazan crystals were dissolved in dimethyl sulfoxide (DMSO), and the optical density (OD) of the compounds was measured at 570 nm using a spectrophotometer (BMG Labtech, Ortenberg, Germany). Cytotoxicity was expressed as an increase in the mean percentage of cytotoxicity relative to the unexposed control ± standard deviation (SD). […] Control values were set at 0% cytotoxicity. IC50 was calculated by fitting the data to a sigmoidal curve using a four-parameter logistic model and was presented as an average of three independent measurements. […] Doxorubicin was used as a positive control. Each sample was tested in triplicate.
(§3) To evaluate the selectivity of the tested compound(s) toward cancer cells over normal cells, the Selectivity Index (SI) was calculated using the following formula:SI = IC50 (normal cells)/IC50 (cancer cells)
(§4) An SI value greater than 2 was considered to indicate selective cytotoxicity, while values below 2 were interpreted as non-selective. Higher SI values reflect greater therapeutic potential due to reduced toxicity toward normal cells.

HeLa cells [1] = test: MTT cell viability assay, HeLa; settings: for IC50: MTT, 48 h, mean ± SD, n = 3; for HeLa Selectivity Index (SI): SI = IC50 (HEK 293)/IC50 (HeLa)
Protocol: as §1, §2, §3, §4

HEK 293 cells = test: MTT cell viability assay, non-cancerous HEK 293; settings: mean ± SD, n = 3
Protocol: as §1
The cytotoxic effect was determined by the MTT (3-(4,5-dimethyl-2-thiazolyl)-2,5-diphenyl-2H-tetrazolium bromide) cell viability assay. Cells were seeded at an initial concentration of 1 × 10^5 cells/mL in 96-well microplates. Cells were then treated with different concentrations (0.5, 5, 10, 25, 50, 100 and 200 µM) of the novel synthesized compounds for 48 h. After the incubation period, the formed formazan crystals were dissolved in dimethyl sulfoxide (DMSO), and the optical density (OD) of the compounds was measured at 570 nm using a spectrophotometer (BMG Labtech, Ortenberg, Germany). Cytotoxicity was expressed as an increase in the mean percentage of cytotoxicity relative to the unexposed control ± standard deviation (SD). […] Control values were set at 0% cytotoxicity. IC50 was calculated by fitting the data to a sigmoidal curve using a four-parameter logistic model and was presented as an average of three independent measurements. […] Each sample was tested in triplicate.

MCF-7 cells = test: MTT cell viability assay, MCF-7; settings: for IC50: MTT, 48 h, mean ± SD, n = 3; for MCF-7 Selectivity Index (SI): SI = IC50 (HEK 293)/IC50 (MCF-7)
Protocol: as §1, §2, §3, §4

HeLa cells [2] = test: LDH leakage assay, HeLa; settings: IC50 concentration of compound, 48 h, H2O2 positive control, mean ± SD, n = 3
Protocol: One hundred microliters of culture medium was transferred to a new 96-well plate. One hundred microliters of LDH reaction solution was added to each well, and absorbance was measured at 490 nm using an ELISA plate reader (BMG Labtech, Ortenberg, Germany) after 30 min.

HeLa cells [3] = test: Total oxidative status (TOS), HeLa; settings: IC50 concentration of compound, 48 h, H2O2 250 µM positive control, mean ± SD, n = 3
Protocol: TOS were evaluated using a commercially available kit (Rel Assay Diagnostics®, Gaziantep, Turkey) according to the manufacturer’s instructions. […] The TOS assay quantifies oxidizing agents based on their ability to convert an iron (II) ion chelator complex to iron (III) ions. The results were calibrated against hydrogen peroxide (H2O2, 250 µM) as a positive control for 48 h and expressed as µmol H2O2 equivalents per liter. The analysis was performed in three independent biological replicates (n = 3).

HeLa cells [4] = test: Intracellular GSH/GSSG ratio, HeLa; settings: IC50 concentration of compound, 48 h, H2O2 positive control, mean ± SD, n = 3
Protocol: Intracellular reduced (GSH) and oxidized (GSSG) glutathione levels were measured using the GSH/GSSG Ratio Detection Assay Kit (Cayman Chemical, Ann Arbor, MI, USA, Cat. No: 703002) according to the manufacturer’s protocol. […] After treatment, cells were washed with cold PBS and lysed with MES buffer provided in the kit.
To prevent oxidation of GSH to GSSG during processing, samples were deproteinized using the supplied metaphosphoric acid solution and neutralized accordingly. Total glutathione and GSSG levels were measured separately by adding the appropriate buffers and reagents to the wells of a 96-well plate, followed by the addition of DTNB recycling reagent and glutathione reductase. Absorbance was read at 405 nm using a microplate reader (BMG Labtech, Germany). The amount of GSH was calculated by subtracting 2 × GSSG from the total glutathione, and the GSH/GSSG ratio was used to assess intracellular redox status.

HeLa cells [5] = test: Cell cycle analysis (PI staining, flow cytometry), HeLa; settings: IC50 concentration, 48 h, mean ± SEM, n = 3
Protocol: Cell cycle distribution was assessed by propidium iodide (PI) staining and flow cytometry. HeLa, MCF-7, and A549 cells were seeded in 6-well plates at a density of 1 × 10^5 cells per well and allowed to attach overnight. […] Following exposure, both adherent and floating cells were collected, washed twice with cold phosphate-buffered saline (PBS, pH 7.4), and fixed overnight in 70% cold ethanol at 4 °C. After fixation, the cells were centrifuged and resuspended in 500 µL of PI/RNase staining solution containing 50 µg/mL PI and 100 µg/mL RNase A (Sigma-Aldrich®, St. Louis, MO, USA), followed by incubation in the dark for 30 min at 37 °C. The stained samples were analyzed using a Muse™ Cell Analyzer (Merck, Millipore, Germany) equipped with a 488 nm excitation laser and a 617 nm emission filter. A minimum of 10,000 events per sample were acquired after exclusion of debris and doublets via FSC-A vs. FSC-H gating. The DNA content histograms were generated automatically, and cell populations were expressed as percentages of G0/G1, S, and G2/M phases using the Muse™ Cell Cycle Analysis Software 1.5.0.0. All assays were conducted in triplicate biological repeats (n = 3), and results were reported as mean ± SEM.

Compound | IC50 (A549 cells; Homo sapiens, A549) [µM] | IC50 (HeLa cells [1]; Homo sapiens, HeLa) [µM] | IC50 (MCF-7 cells; Homo sapiens, MCF7) [µM] | A549 Selectivity Index (SI) (A549 cells) | HeLa Selectivity Index (SI) (HeLa cells [1]) | IC50 (HEK 293 cells; Homo sapiens, HEK293, 48 h) [µM] | MCF-7 Selectivity Index (SI) (MCF-7 cells) | IC50 (A549 cells) [µM] | IC50 (HeLa cells [1]) [µM] | IC50 (HEK 293 cells; 48 h) [µM] | IC50 (MCF-7 cells) [µM] | LDH (HeLa cells [2]) | TOS (HeLa cells [3]) | GSH/GSSG (HeLa cells [4]) | cells in G0/G1 phase (HeLa cells [5]) [%] | cells in G2/M phase (HeLa cells [5]) [%] | cells in S phase (HeLa cells [5]) [%]
CCOC(=O)Cn1c(=O)n(CC(=O)OCC)c2cc(Cl)c(Cl)cc21 [Compound 2, Diethyl 2,2′-(5,6-Dichloro-2-oxo-1H-benzimidazole-1,3(2H)-diyl)diacetate] | 60.8 ± 3.51 | 68.8 ± 3.9 | 63.2 ± 3.65 | 1.17 | 1.04 | 71.3 ± 4.12 | 1.13 | – | – | – | – | – | – | – | – | – | –
2,2′-(5,6-Dichloro-2-oxo-1H-benzimidazole-1,3(2H)-diyl)bis[N′-(furan-2-ylmethylidene) acetohydrazide] [Compound 4] | – | – | – | – | – | – | – | 48 ± 2.77 | 72 ± 4.16 | 55 ± 3.17 | 58 ± 3.35 | – | – | – | – | – | –
O=C(Cn1c(=O)n(CC(=O)c2ccccc2)c2cc(Cl)c(Cl)cc21)c1ccccc1 [Compound 8, 5,6-Dichloro-1,3-bis(2-oxo-2-phenylethyl)-1,3-dihydro-2H-benzimidazol-2-one] | 19.1 ± 1.1 | 23.9 ± 1.38 | 21.7 ± 1.25 | 0.91 | 0.73 | 17.5 ± 1.01 | 0.8 | – | – | – | – | – | – | – | – | – | –
COc1cccc2c1C(=O)c1c(O)c3c(c(O)c1C2=O)C[C@@](O)(C(=O)CO)C[C@@H]3O[C@H]1C[C@H](N)[C@H](O)[C@H](C)O1 [Doxorubicin, reference compound] | 4.3 ± 0.2 | 3.4 ± 0.19 | 6.4 ± 0.37 | – | – | – | – | – | – | – | – | – | – | – | – | – | –
NNC(=O)Cn1c(=O)n(CC(=O)NN)c2cc(Cl)c(Cl)cc21 [Compound 3, 2,2′-(5,6-Dichloro-2-oxo-1H-benzimidazole-1,3(2H)-diyl)diacetohydrazide] | 63.5 ± 3.6 | 75.4 ± 4.35 | 69.8 ± 4.03 | 1.06 | 0.89 | 67.9 ± 3.9 | 0.97 | – | – | – | – | – | – | – | – | – | –
O=C(Cn1c(=O)n(CC(=O)N/N=C/c2cccs2)c2cc(Cl)c(Cl)cc21)N/N=C/c1cccs1 [Compound 5] | 48.3 ± 2.79 | 26.1 ± 1.5 | 50.2 ± 2.9 | 1.22 | 2.27 | 59.4 ± 3.43 | 1.18 | – | – | – | – | 24.8 ± 2.1 µU/mL and 24.8 ± 2.1 ^a,b µU/mL | 6.9 ± 0.5 µmol H2O2 eq/L and 6.9 ± 0.5 ^a,b µmol H2O2 eq/L | 11.8 ± 1.3 | 44.5 ± 2.2 | 30.0 ± 1.5 | 25.5 ± 1.6

Continued, in another order:

IC50 (A549 cells; Homo sapiens, A549) [µM] | IC50 (HeLa cells [1]; Homo sapiens, HeLa) [µM] | IC50 (MCF-7 cells; Homo sapiens, MCF7) [µM] | Compound | A549 Selectivity Index (SI) (A549 cells) | HeLa Selectivity Index (SI) (HeLa cells [1]) | IC50 (HEK 293 cells; Homo sapiens, HEK293, 48 h) [µM] | MCF-7 Selectivity Index (SI) (MCF-7 cells) | IC50 (A549 cells) [µM] | IC50 (HeLa cells [1]) [µM] | IC50 (HEK 293 cells; 48 h) [µM] | IC50 (MCF-7 cells) [µM] | LDH (HeLa cells [2]) | TOS (HeLa cells [3]) | GSH/GSSG (HeLa cells [4]) | cells in G0/G1 phase (HeLa cells [5]) [%] | cells in G2/M phase (HeLa cells [5]) [%] | cells in S phase (HeLa cells [5]) [%]
23.6 ± 1.3 | 29.1 ± 1.26 | 26.4 ± 1.52 | CCN(CC)c1ccc2cc(C(=O)NNC(=O)Cn3c(=O)n(CC(=O)NNC(=O)c4cc5ccc(N(CC)CC)cc5oc4=O)c4cc(Cl)c(Cl)cc43)c(=O)oc2c1 [Compound 12f] | 1.84 | 1.49 | 43.5 ± 2.51 | 1.64 | – | – | – | – | – | – | – | – | – | –
21.7 ± 1.25 | 48.5 ± 2.8 | 50.8 ± 2.93 | O=C(Cn1c(=O)n(CC(=O)NNC(=O)c2cc3ccccc3oc2=O)c2cc(Cl)c(Cl)cc21)NNC(=O)c1cc2ccccc2oc1=O [Compound 12a, N′,N′′′ -(2,2′-(5,6-dichloro-2-oxo-1H-benzo[d]imidazole-1,3(2H)-diyl)bis(acetyl))bis(2-oxo-2H-chromene-3-carbohydrazide)] | 2.05 | 0.91 | 44.6 ± 2.57 | 0.87 | – | – | – | – | – | – | – | – | – | –
35.2 ± 2 | 13.6 ± 0.78 | 25.8 ± 1.5 | O=C(Cn1c(=O)n(CC(=O)NNC(=O)c2cc3cc(Cl)ccc3oc2=O)c2cc(Cl)c(Cl)cc21)NNC(=O)c1cc2cc(Cl)ccc2oc1=O [Compound 12b, N′,N′′′ -(2,2′-(5,6-dichloro-2-oxo-1H-benzo[d]imidazole-1,3(2H)-diyl)bis(acetyl))bis(6-chloro-2-oxo-2H-chromene-3-carbohydrazide)] | 1.39 | 3.61 | 49.1 ± 2.83 | 1.9 | – | – | – | – | 28.5 ± 2.3 µU/mL and 28.5 ± 2.3 ^a,b µU/mL | 8.1 ± 0.6 µmol H2O2 eq/L and 8.1 ± 0.6 ^a,b µmol H2O2 eq/L | 10.1 ± 1.1 | 41.0 ± 2.1 | 35.0 ± 1.7 | 24.0 ± 1.4
52.8 ± 3 | 54.3 ± 3.13 | 65.1 ± 3.76 | COc1cccc2cc(C(=O)NNC(=O)Cn3c(=O)n(CC(=O)NNC(=O)c4cc5cccc(OC)c5oc4=O)c4cc(Cl)c(Cl)cc43)c(=O)oc12 [Compound 12e, N′,N′′′ -(2,2′-(5,6-dichloro-2-oxo-1H-benzo[d]imidazole-1,3(2H)-diyl)bis(acetyl))bis(8-methoxy-2-oxo-2H-chromene-3-carbohydrazide)] | 1.14 | 1.1 | 60.2 ± 3.47 | 0.92 | – | – | – | – | – | – | – | – | – | –
